Assay results published in US20170020909A1, “METHODS OF TREATING GLAUCOMA USING AMP-ACTIVATED PROTEIN KINASE (AMPK) ACTIVATORS” (Massachusetts Eye and Ear Infirmary, priority 2014, published 2017).

Test system: RhoA
Assay: Immunoblot of p-RhoA (Ser188)/total RhoA in human TM cell lysates
Assay type: cell-based
Settings: 0.5 mM AICAR
Description: Primary human trabecular meshwork (TM) cells were isolated, in accordance with the Declaration of Helsinki, and maintained in culture as described previously.^63 Independent primary human TM cell lines were generated from donors ranging in age from 35 to 72 years and no known history of ocular disease. Cell cultures were maintained, unless otherwise stated, in Dulbecco's modified eagle medium (Life Technologies, Grand Island, N.Y.) containing 20% fetal bovine serum, 1% L-glutamine (2 mM), and gentamicin (0.1 mg/ml) at 37° C. in a 10% CO2 atmosphere. Only TM cells from third through fifth passage were used. […]
At the conclusion of each experiment for matricellular and ECM protein detection, conditioned media (CM) from TM cell cultures was harvested and centrifuged at 5000 rpm for 10 minutes at 4° C. The supernatant was then concentrated (Amicon Ultra-4 Filter Unit, 10 kDa; Millipore, Milford, Mass.), and protein content quantified using the DC Protein Assay kit adhering to manufacturer's protocols (Bio-Rad, Hercules, Calif.). […] Samples were then centrifuged at 14,000 rpm for 15 minutes at 4° C. and protein content quantified. […] The membranes were then washed three times with 1×TBS-T, scanned, and integrated band intensities were calculated using an infrared imaging system (Odyssey; Li-Cor, Lincoln, Nebr.). […]

## NC(=O)c1ncn([C@@H]2O[C@H](CO)[C@@H](O)[C@H]2O)c1N [AICAR, 5-Aminoimidazole-4-carboxamide riboside]
Through 24 hours
  duration of the phospho-total RhoA ratio increase: remained statistically significant through 24 hours
Within one hour, human TM cells
  increase of phospho-total RhoA ratio (Ser188): approximately 10 fold
